We go through 8 compounds from US7022680B2, “Inhibitors of ADP-ribosyl transferases, cyclases, and hydrolases” (Albert Einstein College of Medicine of Yeshiva University, priority 2002, dated 2006).

Where “and” joins values, the source holds several entries; their conditions need not be identical. Equal entries are not always repeated.

Series [1] concerns the target T1, human CD38 (Homo sapiens, UniProt P28907).
T1 sequence (P28907 43-300 limits assumed): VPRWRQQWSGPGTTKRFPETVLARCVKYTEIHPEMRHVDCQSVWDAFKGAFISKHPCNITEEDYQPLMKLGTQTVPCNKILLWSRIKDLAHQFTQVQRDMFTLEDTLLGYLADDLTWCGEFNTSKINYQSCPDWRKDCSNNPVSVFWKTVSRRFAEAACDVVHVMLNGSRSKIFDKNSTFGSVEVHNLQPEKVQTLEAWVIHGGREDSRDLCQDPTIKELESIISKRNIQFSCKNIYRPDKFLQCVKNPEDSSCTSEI
The series can be described thus: Competitive and slow-onset inhibition of CD38-catalyzed conversion of NGD+ to cGDPR (295 nm absorbance). The series is classed as biochemical. The arrangement: The soluble domain of human CD38 catalyzes the conversion of NAD^+ to cyclic-ADP-ribose. To be noted: even at millimolar concentrations (data not shown). On the procedure:
Determination of Ki and kon by competitive method. To 1 mL solutions of 50 mM potassium phosphate pH 7.2 and 100 μM NGD^+ containing, 50, 25, 12.5, and 6.25 and 0 μM inhibitor 1 was added 2 μL of 7 μM CD38. Reaction progress upon initiation by enzyme addition was monitored by measurement of 295 nm absorbance. The initial slopes were used to determine the Ki value, and all points of the experiment were fit to the equation A(t)=vt+(b−v)(1−exp(−kt))/k+A0 where k is the observed rate constant, b is the initial rate, v is the final rate and A0 is the initial absorbance was used to evaluate kon.
Determination of Competitive Inhibition by Initial Rates: The inhibitors 1–3 were evaluated for inhibition of CD38 enzymatic activity using a spectrophotometric assay. CD38 catalyzes the conversion of NGD^+ to cyclic-GDP ribose (cGDPR, Scheme 4) and product formation can be monitored by 295 nm absorbance measurement. […] A similar reaction containing 40 μM NGD^+ at several concentrations of 2 was also performed (FIG. 3).
Slow Phase Inhibition. […] This slow phase was not due to substrate depletion and was attributable to a kinetic process leading to progressive inhibition of the enzyme. The “slow-onset” absorbance curves could be fit using the equation At=vit+(vi−vf)(1−exp(−kt))/k+A0 where At is absorbance, vi is initial velocity, vf is final velocity, t is time in s, k is the rate of the slow onset process and A0 is absorbance of the sample at initial time. These fits are shown by the solid lines in FIG. 2 and FIG. 3. The rate constant for the slow phase could be obtained from the average value of k determined from the separate fits. The value of k for 1 was determined to be 0.0042±0.001 s^−1 and the value of k for 2 was determined to be 0.0083±0.002 s^−1. The parameter k is defined as kon in Scheme 5. [drawing 19]

A further series concerns the target T2, CD38 (Homo sapiens, UniProt P28907).
T2 sequence (P28907 1-300): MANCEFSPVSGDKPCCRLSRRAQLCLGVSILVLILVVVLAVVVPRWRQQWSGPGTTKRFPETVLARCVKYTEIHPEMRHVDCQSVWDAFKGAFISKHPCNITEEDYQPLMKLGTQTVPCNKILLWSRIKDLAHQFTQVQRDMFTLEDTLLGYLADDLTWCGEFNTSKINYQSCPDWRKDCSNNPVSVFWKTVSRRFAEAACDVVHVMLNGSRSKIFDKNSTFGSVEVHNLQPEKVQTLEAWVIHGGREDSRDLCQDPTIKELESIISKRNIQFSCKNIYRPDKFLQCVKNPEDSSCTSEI
The conditions noted are these: 37° C.; cited from earlier work.

The target in series [2] is T1, human CD38. The series can be described thus: Radiochemical labeling of CD38 by [2'-3H] inhibitor (gel filtration, scintillation counting). Also on record: The soluble domain of human CD38 catalyzes the conversion of NAD^+ to cyclic-ADP-ribose. The series is classed as binding. To be noted: 9 μM inhibitor, 1.2 μM CD38 monomer, pH 7.5, 25° C. On the procedure:
Radiochemical measurement of inhibitor binding. […] Inhibitor at 9 μM with specific radioactivity of 866 cpm/nmol, was incubated with 1.2 μM CD38 (monomer) in 1 mL 50 mM potassium phosphate (pH 7.5). The reactions were started by enzyme addition and quenched by freezing with a dry ice/acetone bath at 30, 60 90, 120, 250, 500, and 1000 s. Cooled (0° C.) gel filtration columns were used to separate protein with cooled (0° C.) 10 mM potassium phosphate as eluant. The frozen fraction were quickly thawed, applied to these columns and fractions collected in 1 mL volumes over the course of several minutes. Scintillation fluid (9 mL) was then added to each 1 mL fraction and samples counted. […] The observed radioactivity was fit using the equation A(t)=A0(1−exp(−kt))+B. where A0 is activity at reaction completion, k is the observed pseudo-first order rate constant and B is the activity of the blank.
Titration of Enzyme with [2′-^3H]Inhibitor. CD38 inactivation was accomplished using a radiolabeled inhibitor to assess inhibitor interactions with the enzyme independent from inhibition of the catalytic activity. This method allows the determination of the stoichiometry of covalent labeling, and detects cooperativity at multiple sites. […] (FIG. 8) within reasonable agreement with the rate constant for inactivation in kinetic assays of inhibition (kon=0.0042 s^−1 at 19° C.). […]
Background: SEC sorts molecules by how far they enter the pores of the column.

Series [3] deals with T1, human CD38. As to the kind of experiment: Off-rate / recovery of inhibited CD38 in excess NGD+. Format: biochemical. Also on record: The soluble domain of human CD38 catalyzes the conversion of NAD^+ to cyclic-ADP-ribose. To be noted: inhibited CD38 added to excess NGD+, 19° C.; for koff: read-out: koff, rate constant of recovery from inhibition. On the procedure:
Off-Rate Measurement. 500 nM CD38 in 50 mM potassium phosphate pH 7.2 was incubated with 15 μM inhibitor for 30 min at room temperature. 5 μL of the enzyme inhibitor solution was added to a cuvette containing 1 mL reaction of 50 mM potassium phosphate pH 7.5 containing 300 μM NGD^+ pre-chilled to 19° C. Production of […] was determined by monitoring 295 nm absorbance. The absorbance was fit to the equation A(t)=vt+(b−v)(1−exp(−kt))/k+A0 where A(t) is the absorbance, k is the rate constant of recovery, b is the initial rate, v is the final rate and A0 is the initial absorbance. A control lacking inhibitor but in all other respects identical was also run.
Recovery from Inhibition. […] The inhibitor off-rate provides the final parameter in the equation koff/kon*Ki=Ki(total) which is valid for the kinetic scheme of slow-onset inhibition shown in Scheme 5. This rate was obtained by a recovery protocol in which inhibited CD38 enzyme (by either 1 or 2) was added to a 200 μM solution of NGD^+. The solution 295 nm absorbance is monitored spectrophotometrically to assay conversion of NGD^+ to cGDPR as a consequence of regain of CD38 catlytic activity. […] The absorbance curves with the same equation used for slow-onset: At=vit+(vi−vf)(1−exp(−kt))/k+A0 where At is absorbance, vi is initial velocity, vf is final velocity, t is time in s, k is the rate of the recovery rate constant and A0 is the absorbance of the sample at initial time. The rate constant for the recovery phase was obtained from the average value of k determined from the separate fits. The value of koff for 1 was determined to be 1.5×10^−5 s^−1 and for 2 was determined to be 2.5×10^−5 S^−1.

Series [4] can be described thus: Solution hydrolysis of the inhibitor. Format: physicochemical. The conditions noted are these: 10 mM potassium phosphate, pH 6.5, 25° C. The text has this:
Without being bound to any particular mechanism, it is believed that the electron-contributing moiety on A stabilizes the compounds of the invention such that they are less susceptible to hydrolysis from the rest of the compound. For example, the compound β-1′-5-methyl-nicotinamide-2′-deoxyribose (established as an effective inhibitor of CD38 in the Example) was compared with β-1′-nicotinamide-2′-deoxyribose in its ability to resist solution hydrolysis. […] This difference in chemical stability means that β-1′-nicotinamide-2′-deoxyribose is 50% depleted from solution in 2 hours, whereas β-1′-5-methyl-nicotinamide-2′-deoxyribose is not hydrolyzed by 50% until 12 hours. This improved chemical stability improves the value of the compound, since it is available for action for longer periods of time in biological systems due to resistance to hydrolytic breakdown.

The target in series [5] is T1, human CD38. The series can be described thus: CD38-catalyzed base exchange of 2 to 1 with nicotinamide, HPLC. The series is classed as biochemical. The arrangement: The soluble domain of human CD38 catalyzes the conversion of NAD^+ to cyclic-ADP-ribose. The conditions noted are these: 75 μM 2, 1 μM CD38, nicotinamide, 19° C. On the procedure: Base-exchange reaction. […] These reactions were run separately in autosampler tubes held at 19° C. in a temperature regulated autosampler and assayed by multiinjection HPLC using 5 mM K2PO4H pH 5.0 and 2.5% MeOH as eluant. The quantity of 2 reacted and the quantity of 1 formed versus time was determined by integrations of the peaks for 1 and 2 with comparison to standards.

In series [6] the target is T1, human CD38. To be noted: CD38 preincubated with inhibitor 2; saturating nicotinamide.
Procedure: 10 mL CD38 (1 μM) in K2PO4H was incubated with 2 (10 μM) for 30 minutes at room temperature and subsequently placed on ice. […] To a two syringe Applied Photophysics spectrophotometer in fluorescence mode was added inhibited enzyme to one syringe and NGD^+ solution to the other. Fluorescence was used to monitor cGDPR formation and the total fluorescence curves fit using the activity recovery equation F(t)=vt+(b−v) (1−exp(−kt))/k+F0 where k is the observed rate constant, b is the initial rate, v is the final rate and F0 is the initial absorbance.
A stopped flow, two syringe fitted spectrophotometer was used to perform the experiments. The fluorescence of cGDPR was measured as a function of time to generate curves that contain an exponential and a linear phase prior to substrate exhaustion. These curves were fit to the equation Ft=vft+(vi−vf)(1−exp (−kt))/k+F0 as previously defined.

On to `NC(=O)c1ccc[n+](C2CC(O)C(CO)O2)c1` (single isomer, unassigned) [α isomer of 1], for which the “inhibition of CD38 conversion of NGD+ to cGDPR” value on human CD38 [1] is listed as “did not inhibit”.
Same read-out and setting: the result for `Cc1cc(C(N)=O)c[n+](C2CC(O)C(CO)O2)c1` (single isomer, unassigned) [α isomer of 2] reads “did not inhibit”.
As for `NC(=O)c1ccc[n+]([C@@H]2O[C@H](COP(=O)(O)O)[C@@H](O)[C@H]2O)c1` [NMN^+], the “ratio of the rates of turnover of CD38 covalent intermediates, NMN+ versus ara-F-NMN+” value at CD38 is on record as ~10^7.
Take `[3H]C1[C@H]([n+]2cccc(C(N)=O)c2)O[C@H](CO)[C@H]1O` (stereo partly shown) [[2′-^3H]-1, [2′-^3H]Nicotinamide deoxyriboside]: the “rate constant of radiochemical labeling of CD38 (kchem)” value at human CD38 [2] came to 0.01 s⁻¹.
As to `NC(=O)c1ccc[n+]([C@H]2C[C@H](O)[C@@H](CO)O2)c1` [inhibitor 1, nicotinamide-2′-deoxyriboside], at human CD38 [3], the “koff, rate constant of recovery from inhibition” value was 1.5e-05 s⁻¹ and the koff was approximately 2e-05 s⁻¹. Further, in series [4], the “time until 50% depleted from solution by hydrolysis” value was found to be 2 h.
For the compound `Cc1cc(C(N)=O)c[n+]([C@H]2C[C@H](O)[C@@H](CO)O2)c1` [inhibitor 2, 5-methyl-nicotinamide-2′-deoxyriboside], the “kcat of base exchange (2 to 1)” value at human CD38 [5] came to 0.007 s⁻¹. In addition, at human CD38 [3], the “koff, rate constant of recovery from inhibition” value is 2.5e-05 s⁻¹ and the koff is approximately 2e-05 s⁻¹. Besides, in series [4], the “time until 50% depleted from solution by hydrolysis” value came out at 12 h.
As to `OC[C@H]1O[C@@H]([n+]2ccccc2)C[C@@H]1O` [inhibitor 3, pyridyl-2′-deoxyriboside], the “inhibition of CD38 conversion of NGD+ to cGDPR” value at human CD38 [1] is given as “did not inhibit”.
Regarding `NC(=O)c1cccnc1` [nicotinamide], the “maximum rate of rescue (kbase)” value at human CD38 [6] is 0.023 s⁻¹ and 0.024 s⁻¹.

Usually koff stands for the rate constant with which the complex falls apart.
